Reference: ChEMBL document CHEMBL5260795, “Antifungal potential of marine natural products” (Eur J Med Chem, 2017)
≈ marks a conversion by molar mass, not a printed value.

Columns and labels:
Aspergillus niger [1] = test: Antifungal activity against Aspergillus niger; type: functional
Candida albicans [2] = test: Antimicrobial activity against Candida albicans assessed as reduction of microbial microbial growth; type: functional
Candida tropicalis [3] = test: Antifungal activity against Candida tropicalis; type: functional
Fusarium oxysporum [4] = test: Antifungal activity against Fusarium oxysporum; type: functional
Aspergillus fumigatus [5] = test: Antimicrobial activity against Aspergillus fumigatus; type: functional
Candida tropicalis [6] = test: Antifungal activity against Candida tropicalis assessed as fungal growth inhibition; type: functional
Nannizzia gypsea [7] = test: Antifungal activity against Microsporum gypseum ATCC31388; type: functional
Fusarium graminearum = test: Antimicrobial activity against Fusarium graminearum; type: functional
Lindra thalassiae = test: Antifungal activity against Lindra thalassiae assessed as lethal dose; type: functional; details: Lindriella thalassiae; read-out: LD50 (the source's name)
Rhagastis acuta = test: Antifungal activity against Rhagastis acuta measured after 3 to 4 days by agar plate diffusion method; type: functional; details: time 3-4 day
Ogataea angusta = test: Antifungal activity against Pichia angusta measured after 3 to 4 days by agar plate diffusion method; type: functional; details: time 3-4 day
Candida albicans [8] = test: Antifungal activity against Candida albicans measured after 3 to 4 days by agar plate diffusion method; type: functional; details: time 3-4 day
Aspergillus niger [9] = test: Antifungal activity against Aspergillus niger measured after 3 to 4 days by agar plate diffusion method; type: functional; details: time 3-4 day
Cryptococcus neoformans [10] = test: Antifungal activity against Cryptococcus neoformans measured after 3 to 4 days by agar plate diffusion method; type: functional; details: time 3-4 day
Botrytis fabae = test: Antifungal activity against Botrytis fabae measured after 3 to 4 days by agar plate diffusion method; type: functional; details: time 3-4 day
Epidermophyton floccosum = test: Antifungal activity against Epidermophyton floccosum measured after 96 hrs by two fold serial dilution technique; type: functional
[11] = tested on: Trichophyton mentagrophytes; test: Antifungal activity against Trichophyton mentagrophytes measured after 96 hrs by two fold serial dilution technique; type: functional
Nannizzia gypsea [12] = test: Antifungal activity against Microsporum gypseum measured after 96 hrs by two fold serial dilution technique; type: functional
Aspergillus niger [13] = test: Antifungal activity against Aspergillus niger measured after 96 hrs by two fold serial dilution technique; type: functional
Aspergillus fumigatus [14] = test: Antifungal activity against Aspergillus fumigatus measured after 96 hrs by two fold serial dilution technique; type: functional
Fusarium oxysporum [15] = test: Antifungal activity against Fusarium oxysporum measured after 96 hrs by two fold serial dilution technique; type: functional
Candida albicans [16] = test: Antifungal activity against Candida albicans measured after 96 hrs by two fold serial dilution technique; type: functional
Candida albicans [17] = test: Antifungal activity against Candida albicans ATCC 24433; type: functional
Cryptococcus neoformans [18] = test: Antimicrobial activity against Cryptococcus neoformans; type: functional
Candida albicans [19] = test: Antimicrobial activity against Candida albicans assessed as inhibition of microbial growth; type: functional
Candida tropicalis [20] = test: Antimicrobial activity against amphotericin-B-resistant Candida tropicalis; type: functional
Candida tropicalis [21] = test: Antimicrobial activity against nystatin-resistant Candida tropicalis; type: functional
Cryptococcus neoformans [22] = test: Antifungal activity against Cryptococcus neoformans var. grubii assessed as fungal growth inhibition; type: functional
Candida albicans [23] = test: Antifungal activity against wild type Candida albicans; type: functional, organism-based
Candida albicans [24] = test: Antifungal activity against amphotericin-B-resistant Candida albicans; type: functional, organism-based
Nakaseomyces glabratus = test: Antifungal activity against fluconazole-resistant Candida glabrata by CLSI protocol based macrobroth dilution method; type: functional
Pichia kudriavzevii = test: Antifungal activity against fluconazole-resistant Candida krusei by CLSI protocol based macrobroth dilution method; type: functional
Cryptococcus neoformans [25] = test: Antifungal activity against Cryptococcus neoformans assessed as fungal growth inhibition; type: functional

With `C/C(=C\[C@@H](O)C/C(C)=C/CCc1ccoc1)C/C=C/c1ccoc1` the MIC (Aspergillus niger [1]) was 2 µg/mL (≈ 6.13 µM), the MIC (Candida albicans [2]) was 0.25 µg/mL and the MIC (Candida tropicalis [3]) was 2 µg/mL (≈ 6.13 µM). The MIC (Fusarium oxysporum [4]) was 1 µg/mL (≈ 3.06 µM).

`COc1ccc(/C=C/CCCC[C@H](C)[C@H](O)[C@@H](O)[C@H]2NC(=O)C[C@@H](O)CNC(=O)CNC(=O)[C@@H](Cc3c(C(=O)O)[nH]c4ccccc34)NC(=O)CN(C)C(=O)C[C@H]3NC(=O)C[C@H]3NC(=O)[C@H]2O)cc1` was tested, and the MIC (Aspergillus fumigatus [5]) was 0.6 µg/mL (≈ 0.623 µM).

`CO[C@@H]1[C@@H](O)[C@H](O[C@@H]2[C@@H](O)[C@H](O[C@@H]3CO[C@@H](O[C@H]4CC[C@]5(C)[C@@H]6CC[C@]78C(=O)O[C@@](C)(C[C@H](CC(C)C)OC(C)=O)[C@H]7C(=O)C[C@@]8(C)C6=CC[C@H]5C4(C)C)[C@H](O[C@@H]4O[C@H](C)[C@@H](O[C@@H]5OC[C@@H](O)[C@H](O[C@@H]6O[C@H](CO)[C@@H](O)[C@H](OC)[C@H]6O)[C@H]5O)[C@H](O)[C@H]4O)[C@H]3O)O[C@H](CO)[C@H]2O)O[C@H](CO)[C@H]1O` showed an MIC (Candida tropicalis [6]) of 1.4 µM (≈ 2.04 µg/mL) and an MIC (Nannizzia gypsea [7]) of 1.4 µM (≈ 2.04 µg/mL).

Molecule `CC(C)C1=C2N=C3OC=CC=C[C@@]34OC[C@H]3O[C@@]4(OC3(C)C)N2[C@@H](Cc2ccccc2)C(=O)N1` has an MIC (Fusarium graminearum) of 4 µg/mL (≈ 8.63 µM).

In the case of `CC(=O)OC[C@@]1(COS(=O)(=O)[O-])C(=O)CC[C@]23C[C@]24CC[C@]2(C)[C@@H]([C@H](C)CC(=O)CC(C)C)CC[C@@]2(C)[C@H]4CC[C@@H]13.[Na+]`, the LC50 (Lindra thalassiae) is reported as 0.03 µg/mL.

`CC[C@@H](CC(=O)C(Cl)Cl)[C@H](C)c1ccc([N+](=O)[O-])cc1` was tested, and the MIC (Rhagastis acuta) was 0.1 µg/mL (≈ 0.314 µM), the MIC (Ogataea angusta) was 0.1 µg/mL (≈ 0.314 µM) and the MIC (Candida albicans [8]) was 0.1 µg/mL (≈ 0.314 µM). For the same molecule, the MIC (Aspergillus niger [9]) was 0.1 µg/mL (≈ 0.314 µM), the MIC (Cryptococcus neoformans [10]) was 0.1 µg/mL (≈ 0.314 µM) and the MIC (Botrytis fabae) was 0.1 µg/mL (≈ 0.314 µM).

With `CC(C)CC(=O)C[C@@H](C)[C@H]1CC[C@@]2(C)[C@H]3CC[C@H]4[C@](CO)(COS(=O)(=O)[O-])C(=O)CC[C@@]45C[C@@]35CC[C@]12C.[Na+]` the LC50 (Lindra thalassiae) was 0.94 µg/mL.

In the case of `CC(=O)OCc1cc(=O)occ1O`, the MIC (Epidermophyton floccosum) is reported as 1 µg/mL (≈ 5.43 µM), the MIC [11] is reported as 1 µg/mL (≈ 5.43 µM) and the MIC (Nannizzia gypsea [12]) is reported as 1 µg/mL (≈ 5.43 µM). The MIC (Aspergillus niger [13]) was 1 µg/mL (≈ 5.43 µM), the MIC (Aspergillus fumigatus [14]) was 1 µg/mL (≈ 5.43 µM) and the MIC (Fusarium oxysporum [15]) was 1 µg/mL (≈ 5.43 µM). The MIC (Candida albicans [16]) was 1 µg/mL (≈ 5.43 µM).

With `CC(C)C[C@@H](C)[C@@H](O)[C@@H](C)C(=O)N[C@H](C)C(=O)N[C@@H](CCCNC(=N)N)[C@@H](O)[C@@H](O)C(=O)N[C@@H](C(=O)N[C@@H](C(=O)O)[C@@H](C)O)[C@@H](C)CC(N)=O` the MIC (Candida albicans [17]) was 0.07 µg/mL (≈ 0.0974 µM).

`CCCCCCCCC(O)C(O)CC/C=C\CCCCCC(O)C(N)CO` (stereo not given) gave an MIC (Cryptococcus neoformans [18]) of 0.2 µg/mL (≈ 0.516 µM), an MIC (Candida albicans [19]) of 0.4 µg/mL and an MIC (Candida tropicalis [20]) of 0.4 µg/mL (≈ 1.03 µM). For the same molecule, the MIC (Candida tropicalis [21]) was 0.4 µg/mL (≈ 1.03 µM).

`COC(=O)CCC[C@@H]1CC[C@@H](C#C/C=C/CCCCCC/C=C/Br)O1` was tested, and the MIC (Cryptococcus neoformans [22]) was 4 µg/mL (≈ 9.72 µM).

Molecule `COc1ccc(/C=C/CCCC[C@H](C)[C@H](O)[C@@H](O)[C@H]2NC(=O)C[C@@H](O)CNC(=O)CNC(=O)[C@@H](Cc3c(C(=O)O)[nH]c4ccccc34)NC(=O)CN(C)C(=O)C[C@H]3NC(=O)[C@H](O)[C@H]3NC(=O)[C@H]2O)cc1` has an MIC (Aspergillus fumigatus [5]) of 1.3 µg/mL (≈ 1.33 µM).

Molecule `CC(/C=C/c1ccccc1)=C\[C@H](O)[C@@H]1CC(=O)N[C@@H](CO)C(=O)NC2Cn3cc([n+]([C@@H]4O[C@H](CO)[C@H](O)[C@H](O)[C@H]4O)c3)CC(NC(=O)CCC[C@@H](C(=O)[O-])NC(=O)[C@@H](O)CNC(=O)[C@H](Cc3ccc(Br)cc3)NC(=O)[C@H]([C@@H](O)C(N)=O)NC(=O)[C@H](CC(N)=O)NC2=O)C(=O)N[C@@H]([C@H](C)O)C(=O)N[C@@H](CO)C(=O)N[C@@H](Cc2ccccc2)C(=O)N1` (stereo not given in full) has an IC50 (Candida albicans [23]) of 7.84 µg/mL (≈ 4.52 µM) and an IC50 (Candida albicans [24]) of 3.49 µg/mL (≈ 2.01 µM).

`COc1cc(/C=N/O)nc(-c2ccccn2)c1` [CAERULOMYCIN A] was tested, and the MIC (Nakaseomyces glabratus) was 0.39 µg/mL (≈ 1.7 µM) and the MIC (Pichia kudriavzevii) was 0.39 µg/mL (≈ 1.7 µM).

In the case of `CCCCC(C)C/C(=C/[C@@]1(CC)OC(=O)C[C@@H]1O)CC` (stereo not given in full) [SIMPLEXOLIDE E], the MIC (Cryptococcus neoformans [25]) is reported as 3.66 µg/mL (≈ 13 µM).
